Assay results taken from PubChem BioAssay (NCI).
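Dose response: 5 concentrations. Exposure: 48 h. Format: 96-well plates. Endpoint: linear interpolation; highest concentration if not reached. GI50 is the concentration that inhibits growth by half. TGI marks complete inhibition of growth.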

Key:
Assay in all cases: DTP human tumour cell line panel, 48 h
SN12C renal = test system: SN12C renal
ACHN renal = test system: ACHN renal
CAKI-1 renal = test system: CAKI-1 renal
SK-OV-3 ovarian = test system: SK-OV-3 ovarian
OVCAR-4 ovarian = test system: OVCAR-4 ovarian
MALME-3M melanoma = test system: MALME-3M melanoma
OVCAR-8 ovarian = test system: OVCAR-8 ovarian
KM12 colon = test system: KM12 colon
HT29 colon = test system: HT29 colon
SR leukemia = test system: SR leukemia
TK-10 renal = test system: TK-10 renal
SK-MEL-5 melanoma = test system: SK-MEL-5 melanoma
UACC-257 melanoma = test system: UACC-257 melanoma
SNB-19 CNS = test system: SNB-19 CNS
HOP-92 NSCLC = test system: HOP-92 NSCLC
EKVX NSCLC = test system: EKVX NSCLC
SF-295 CNS = test system: SF-295 CNS
786-0 renal = test system: 786-0 renal
MOLT-4 leukemia = test system: MOLT-4 leukemia
MDA-MB-231 breast = test system: MDA-MB-231 breast
SNB-75 CNS = test system: SNB-75 CNS
HCT-116 colon = test system: HCT-116 colon
CCRF-CEM leukemia = test system: CCRF-CEM leukemia
SF-268 CNS = test system: SF-268 CNS
HOP-62 NSCLC = test system: HOP-62 NSCLC
M14 melanoma = test system: M14 melanoma
HCC-2998 colon = test system: HCC-2998 colon
A498 renal = test system: A498 renal
NCI-H522 lung = test system: NCI-H522 lung

Compound: Cc1ccc2nc3ccccc3c(NCc3ccc(Cl)cc3)c2c1
- GI50 (SN12C renal): 5.09 µM
- TGI (SN12C renal): 12 µM
- GI50 (ACHN renal): 5.44 µM
- TGI (ACHN renal): 11.9 µM
- GI50 (CAKI-1 renal): 4.89 µM
- TGI (CAKI-1 renal): 11 µM
- GI50 (SK-OV-3 ovarian): 7.7 µM
- TGI (SK-OV-3 ovarian): 15.8 µM
- GI50 (OVCAR-4 ovarian): 5.13 µM
- TGI (OVCAR-4 ovarian): 11.9 µM
- GI50 (MALME-3M melanoma): 5.85 µM
- TGI (MALME-3M melanoma): 12.5 µM
- GI50 (OVCAR-8 ovarian): 5.77 µM
- TGI (OVCAR-8 ovarian): 16.6 µM
- GI50 (KM12 colon): 6.5 µM
- TGI (KM12 colon): 13.5 µM
- GI50 (HT29 colon): 1.8 µM
- TGI (HT29 colon): 7.73 µM
- GI50 (SR leukemia): 1.48 µM
- TGI (SR leukemia): 3.84 µM
- GI50 (TK-10 renal): 8.94 µM
- TGI (TK-10 renal): 16.7 µM
- GI50 (SK-MEL-5 melanoma): 6 µM
- TGI (SK-MEL-5 melanoma): 12.3 µM
- GI50 (UACC-257 melanoma): 8.57 µM
- TGI (UACC-257 melanoma): 16.2 µM
- GI50 (SNB-19 CNS): 6.21 µM
- TGI (SNB-19 CNS): 12.7 µM
- GI50 (HOP-92 NSCLC): 1.38 µM
- TGI (HOP-92 NSCLC): 5.79 µM
- GI50 (EKVX NSCLC): 6.45 µM
- TGI (EKVX NSCLC): 13 µM
- GI50 (SF-295 CNS): 5.65 µM
- TGI (SF-295 CNS): 11.7 µM
- GI50 (786-0 renal): 5.53 µM
- TGI (786-0 renal): 12.1 µM
- GI50 (MOLT-4 leukemia): 1.59 µM
- TGI (MOLT-4 leukemia): 5.5 µM
- GI50 (MDA-MB-231 breast): 5.16 µM
- TGI (MDA-MB-231 breast): 12.2 µM
- GI50 (SNB-75 CNS): 6.77 µM
- TGI (SNB-75 CNS): 13.3 µM
- GI50 (HCT-116 colon): 2.15 µM
- TGI (HCT-116 colon): 8.27 µM
- GI50 (CCRF-CEM leukemia): 2.02 µM
- TGI (CCRF-CEM leukemia): 8.95 µM
- GI50 (SF-268 CNS): 6.91 µM
- TGI (SF-268 CNS): 14.2 µM
- GI50 (HOP-62 NSCLC): 6.89 µM
- TGI (HOP-62 NSCLC): 16.3 µM
- GI50 (M14 melanoma): 6.75 µM
- TGI (M14 melanoma): 13.6 µM
- GI50 (HCC-2998 colon): 1.02 µM
- TGI (HCC-2998 colon): 2.02 µM
- GI50 (A498 renal): 5.61 µM
- TGI (A498 renal): 11.9 µM
- GI50 (NCI-H522 lung): 5.85 µM
- TGI (NCI-H522 lung): 14.6 µM
